Measurements reported in patent publication US6268395A, “Phorbol derivatives having antivirus activity” (Lead Chemical Co., Ltd., priority 1999, dated 2001).
Entries after “also recorded” stand apart in the source; their conditions may differ. Like-named read-outs stand apart in the source and are kept apart here.

Legend:
HIV = settings: cited from earlier work
P-388 leukemia = P-388 leukemia in mice; cited from earlier work
HIV-1 = assay: Inhibition of HIV-1-induced cytopathic effect (CPE) in MT-4 cells; type: cell-based, HIV-1 (LAV-1) in human MT-4 cells; settings: for CPE inhibitory effect (in words): HIV-1; for anti-HIV-1 activity: at concentrations up to 500 μg/mL
Description: (§1) In the experiments, MT-4 cells were used. The cells were incubated at 37° C. under 5% CO2 in RPMI-1640 medium (FCS, Flow laboratories, North Ryde, Australia) supplemented with 100 μg/mL of streptomycin (Meiji Seika, Tokyo, Japan), and 100 U/mL of penicillin G (Banyu Pharmaceutical, Tokyo, Japan).
HIV-1 was obtained from culture supernatant of MOLT-4 cells that had been persistently infected with LAV-1.
j) Assay of cytopathic effect(CPE) of HIV-1 in MT-4 cells
(§2) The inhibitory effect of test compounds on HIV-1-induced cytopathogenicity was measured by the method of Harada, Koyanagi & Yamamoto (1985). MT-4 cells were infected for 1 hour with HIV-1 (at TCID50 of 0.001/well) and non-adsorbed virus was removed by washing. Then, the cells were resuspended in RPMI-1640 medium at a concentration of 1.5×10^5 cells/mL. A 200 μL/well of the cell suspension was cultured for 5 days in days in a 96-well culture plate containing various concentrations (12 doses, maximum 1,000 μg/mL and minimum […]) of the test compounds. Control assays were performed in the absence of test compounds with HIV-1-infected and uninfected cultures. On day 5, the IC100 of the test compound required for completely preventing HIV-1-induced CPE(IC) was determined through an optical microscope and the cell growth was examined to give the CC0 that reduces the viability of MT-4 cells.
A variety of phorbol esters and related compounds were tested for their ability to inhibit the replication and infectivity of HIV-1 in MT-4 cells, a human CD4-positive cell line continually infected with HTLV-1, and the results are presented in Table 3.

[1] = Cell growth / viability of MT-4 cells (cytotoxicity); type: cell-based; settings: human, day 5, read-out: CC0 (concentration that reduces viability of MT-4 cells; minimum cytotoxic concentration)
Description: as §1, §2

protein kinase C (PKC) = type: biochemical, mouse; settings: for % Activity of PKC: relative to TPA positive control; for activation of PKC (in words): concentration not given
Description: After addition of 0.55 nM [γ-^32 P] ATP (50×10^3 cpm/nmol), the reaction mixture was mixed and allowed to be kept at 37° C. for 30 minutes. Then the reactions were terminated by the addition of 10 μl of ice-cold stop reagent. Aliquots of 35 μL were transferred to the center of peptide binding discs. After 10 minutes, the discs were washed two times with 75 mM orthophosphoric acid. The activity of ^32 P-labeled samples was counted in 10/mL of a scintillation fluid for 1 minute. […] Blank (in the absence of PKC) and control (in the absence of TPA or tested samples) were also carried out. One unit of PKC was defined as that amount of enzyme, which incorporated 1 nmol of phosphate from ATP into its substrate, peptide, per minute under the assay conditions, described above.

Row | SMILES | anti-HIV activity (HIV) | antileukemic activity (P-388 leukemia) | CPE inhibitory effect (in words) (HIV-1; MT-4 cells) | anti-HIV-1 activity (HIV-1) | MCC at 120 h [1] [µg/mL] | % Activity of PKC (protein kinase C (PKC); 10 ng/mL) [%] | % Activity of PKC (protein kinase C (PKC); 2.7 μg/mL) [%] | activation of PKC (in words) (protein kinase C (PKC)) | IC100 (HIV-1; Human immunodeficiency virus 1, MT4, 120 h, MT-4 cells, 5 days, NE: Not effective, read-out: Anti-HIV-1 IC100 (complete prevention of HIV-1-induced CPE)) [µg/mL] | r = CC0/IC100 (HIV-1; MT-4 cells, 7200 min) | PKC activation (in words) (protein kinase C (PKC); high concentrations) | PKC activation (in words) (protein kinase C (PKC); 10 ng to 2.7 μg/mL) | PKC activation (in words) (protein kinase C (PKC); 10 ng/mL (standard concentration))
1 | CC(=O)O[C@@]12C[C@@H](C)[C@@]3(O)[C@@H](C=C(CO)C[C@]4(O)C(=O)C(C)=C[C@@H]34)[C@@H]1C2(C)C [12-Deoxyphorbol-13-acetate] | having an anti-HIV activity | – | – | – | – | – | – | – | – | – | – | – | –
2 | C/C=C(\C)C(=O)O[C@@H]1[C@@H](C)[C@@]2(O)[C@@H](C=C(CO)C[C@]3(O)C(=O)C(C)=C[C@@H]23)[C@@H]2C(C)(C)[C@]12OC(=O)CCCCCCCCC [12-O-tigloylphorbol-13-decanoate] | – | demonstrated antileukemic activity | – | – | – | – | – | – | – | – | – | – | –
3 | CC1=C[C@H]2[C@@]3(O)[C@H](C)[C@@H](O)[C@]4(O)[C@H]([C@@H]3C=C(CO)C[C@@]2(O)C1=O)C4(C)C [Compound 19, 4α-Phorbol] | – | – | did not show CPE inhibitory effect; also recorded: showed no effect | did not show anti-HIV-1 activity | 500 | 1 | 5 | weak activators of PKC | – | – | – | – | –
4 | CC1=C[C@@H]2[C@@H](CC(CO)=C[C@H]3[C@@H]4C(C)(C)[C@]4(O)[C@H](O)[C@@H](C)[C@]23O)C1=O [Compound 20, 4-Deoxy-4α-phorbol] | – | – | did not show CPE inhibitory effect; also recorded: showed no effect | did not show anti-HIV-1 activity | 500 | 0 | 25 | weak activators of PKC | – | – | – | – | –
5 | CC(=O)OCC1=C[C@H]2[C@@H]3C(C)(C)[C@]3(OC(C)=O)[C@H](OC(C)=O)[C@@H](C)[C@]2(O)[C@@H]2C=C(C)C(=O)[C@]2(O)C1 [Compound 21, 4α-Phorbol-12,13,20-triacetate] | – | – | – | – | 500 | 0 | 39 | – | 250 | 2.00 | enhanced activation of PKC | – | –
6 | CCCC(=O)OCC1=C[C@H]2[C@@H]3C(C)(C)[C@]3(OC(=O)CCC)[C@H](OC(=O)CCC)[C@@H](C)[C@]2(O)[C@@H]2C=C(C)C(=O)[C@]2(O)C1 [Compound 22, 4α-Phorbol-12,13,20-tributyrate] | – | – | showed no effect | did not show anti-HIV-1 activity | 62.5 | 0 | 0 | – | – | – | – | no activation | –
7 | CC(=O)OCC12CC3(O)C(=O)C1(C)C1C3C3(O)C(C)C(OC(C)=O)C4(OC(C)=O)C(C3C12)C4(C)C (stereo not drawn) [Compound 24, Lumiphorbol-12,13,20-triacetate] | – | – | showed no effect | did not show anti-HIV-1 activity | 500 | 0 | 93 | – | – | – | enhanced activation of PKC | – | no activation was observed
